Source: PMC8351955, “Targeting Mycobacterium tuberculosis response to environmental cues for the development of effective antitubercular drugs” (PLoS Biology, 2021)
Like-named read-outs stand apart in the source and are kept apart here.

How the values were obtained:
Test in all cases: microbe, parasite or virus in culture
Assay type in all cases: cell-based, Mycobacterium tuberculosis
[1] = tested on: CDC1551(rv1405c′::GFP) reporter Mtb strain; settings: for activity at 10 µM / activity at 20 µM / IC50: Mycobacterium tuberculosis; for activity at 10 µM: read-out: rv1405c'::GFP secondary assay NPA% at 10 µM compound; for activity at 20 µM: read-out: rv1405c'::GFP secondary assay NPA% at 20 µM compound; for IC50: read-out: ShuminTan.MtbChloride.Secondary: IC50
[2] = tested on: CDC1551(rv2390c′::GFP) reporter Mtb strain, response to high [Cl−]; settings: for activity at 10 µM / activity at 20 µM / IC50: Mycobacterium tuberculosis; for activity at 10 µM / activity at 20 µM: 144 h; for activity at 20 µM: read-out: rv2390c'::GFP validation assay NPA% at 20 µM compound; for IC50: read-out: ShuminTan.MtbChloride.Validation: IC50; for ShuminTan.MtbChloride.Primary: NPI%: primary screen, Sheet2
[3] = tested on: Mtb growth in J774 murine macrophage-like cells; settings: for NPI (Mtb growth in J774 cells), average: Fig 1F; for inhibition at 10 µM / inhibition at 20 µM / IC50: Mycobacterium tuberculosis; for inhibition at 10 µM: read-out: J774 tertiary assay % inhibition compared to Rif at 10 µM compound; for IC50: J774 dose response 0.039-20 µM, read-out: ShuminTan.Mtb.Validation.Macrophage: IC50
[4] = pH 6.4, […], DMSO positive control = 100%, read-out: Primary screen rv2390c'::GFP NPA%
[5] = 10 µM, pH 6.4, 250 mM NaCl, 6 days, read-out: rv2390c'::GFP validation assay NPA% at 10 µM compound
[6] = J774, 144 h, read-out: J774 tertiary assay % inhibition compared to Rif at 20 µM compound
[7] = J774, read-out: %inhibition compared to Rif in J774 at 20 uM

Row | SMILES | activity at 10 µM [1] [%] | activity at 20 µM [1] [%] | activity at 10 µM [2, 4] [%] | activity at 10 µM [2, 5] [%] | activity at 20 µM ([2]; pH 6.4, 250 mM NaCl, 6 days) [%] | inhibition at 20 µM [3, 6] [%] | also measured
1 | CCCSc1ncc(CN2CCN(c3ncnc4[nH]cnc34)CC2)cn1 [C6 analog, CCCSC1=NC=C(CN2CCN(CC2)C2=NC=NC3=C2N=CN3)C=N1] | 151 ± 6.4 | 154 ± 8.1 | 153 | 124 ± 10.1 | 158 ± 6.1 | 53.2 ± 1.6 | NPI (Mtb growth in J774 cells), average ([3]; 0.078125 µM, 5 µM rifampicin = 100% inhibition): -6.22%; NPI (Mtb growth in J774 cells), average ([3]; 0.15625 µM): 3.8025%; NPI (Mtb growth in J774 cells), average ([3]; 0.3125 µM): 9.675%; NPI (Mtb growth in J774 cells), average ([3]; 0.625 µM): 16.75%; NPI (Mtb growth in J774 cells), average ([3]; 1.25 µM): 32.05%; NPI (Mtb growth in J774 cells), average ([3]; 2.5 µM): 36.55%; NPI (Mtb growth in J774 cells), average ([3]; 5 µM): 46.75%; NPI (Mtb growth in J774 cells), average ([3]; 10 µM): 41.15%; NPI (Mtb growth in J774 cells), average ([3]; 20 µM): 53.2%; inhibition at 10 µM ([3]; J774, 144 h): 41.2 ± 0.6%
2 | O=C(Nc1cccc(C(F)(F)F)c1)c1n[nH]c(=O)c2ccccc12 [RU-0270645, FC(F)(F)C1=CC(NC(=O)C2=NNC(=O)C3=C2C=CC=C3)=CC=C1] | 93.4 ± 11.5 | 139 ± 4.6 | 155 | 142 ± 8.2 | 152 ± 12.1 |  | rv1405c assay NPI at 10 uM [1]: 93.5; rv1405c assay NPI at 20 uM [1]: 138; IC50 [1]: < 0.0391 µM; validation NPI at 10 uM [2]: 143; validation NPI at 20 uM [2]: 153; IC50 [2]: < 0.0391 µM; ShuminTan.MtbChloride.Primary: NPI% [2]: 154.973%; inhibition at 20 µM [3, 7]: 17.7%; IC50 [3]: > 20 µM
3 | CCOc1ccc(OCCN(CC)CC(O)c2ccc(C)cc2)cc1 (stereo not drawn) [RU-0211290, CCOC1=CC=C(OCCN(CC)CC(O)C2=CC=C(C)C=C2)C=C1] | 102 ± 6.3 | 128 ± 6 | 152 | 111 ± 8.9 | 145 ± 8.4 |  | rv1405c assay NPI at 10 uM [1]: 103; rv1405c assay NPI at 20 uM [1]: 129; IC50 [1]: < 0.0391 µM; validation NPI at 10 uM [2]: 111; validation NPI at 20 uM [2]: 146; IC50 [2]: < 0.0391 µM; ShuminTan.MtbChloride.Primary: NPI% [2]: 152.309%; inhibition at 20 µM [3, 7]: 17.1%; IC50 [3]: > 20 µM
4 | O=C(Nc1ccc(OCC(F)(F)F)nc1)N1CCCCCCC1 [RU-0275323, FC(F)(F)COC1=NC=C(NC(=O)N2CCCCCCC2)C=C1] | 111 ± 5.5 | 112 ± 10.6 | 45.1 | 87.5 ± 8 | 49.4 ± 7.1 |  | rv1405c assay NPI at 10 uM [1]: 111; rv1405c assay NPI at 20 uM [1]: 112; IC50 [1]: < 0.0391 µM; validation NPI at 10 uM [2]: 88.4; validation NPI at 20 uM [2]: 51.1; IC50 [2]: 13 µM; ShuminTan.MtbChloride.Primary: NPI% [2]: 45.0537%; inhibition at 20 µM [3, 7]: 15.8%; IC50 [3]: > 20 µM
5 | COc1ccc(Cl)c(NS(=O)(=O)c2cnc(Cl)n2C)c1 [RU-0278036, COC1=CC(NS(=O)(=O)C2=CN=C(Cl)N2C)=C(Cl)C=C1] | 75.9 ± 12.9 | 152 ± 19.9 | 48.8 | 87.6 ± 8 | 50 ± 7.7 | 61.5 ± 2.6 | inhibition at 10 µM ([3]; J774, 144 h): 23.9 ± 12.9%
6 | CN(CC(O)c1ccccc1Cl)C1CCc2ccccc21 (stereo not drawn) [RU-0271187, CN(CC(O)C1=C(Cl)C=CC=C1)C1CCC2=C1C=CC=C2] | 228 ± 8.7 | 461 ± 7.9 | 166 | 138 ± 7.4 | 207 ± 9.5 | 36.1 ± 0.1 | inhibition at 10 µM ([3]; J774, 144 h): 4.8 ± 0.1%
7 | CCc1nc(Cn2ccnc2-c2nc3c(s2)CCCC3)no1 [RU-0226010, CCC1=NC(CN2C=CN=C2C2=NC3=C(CCCC3)S2)=NO1] | 92.3 ± 12.5 | 104 ± 23.1 | 168 | 125 ± 6.6 | 129 ± 4 | 30.4 ± 2.4 | 
8 | N=C1SCC(=O)N1c1ncc(Cc2ccccc2)s1 [RU-0270641, N=C1SCC(=O)N1C1=NC=C(CC2=CC=CC=C2)S1] | 79.6 ± 11 | 110 ± 12.2 | 42.5 | 69 ± 5 | 33.9 ± 6.5 | 28.8 ± 4.5 | inhibition at 10 µM ([3]; J774, 144 h): 12.1 ± 10.5%
9 | Cc1cccc(C)c1OC1CCN(c2cncc(C(N)=O)n2)CC1 [RU-0273431, CC1=CC=CC(C)=C1OC1CCN(CC1)C1=NC(=CN=C1)C(N)=O] | 145 ± 16 | 159 ± 12.5 | 151 | 136 ± 9.1 | 135 ± 17.7 | 34.9 ± 5.2 | inhibition at 10 µM ([3]; J774, 144 h): 21.4 ± 7.4%
10 | O=C(NC[C@H]1C[C@H]2C=C[C@H]1C21CC1)c1cnc(N2CCOCC2)nc1 [RU-0184528, O=C(NC[C@H]1C[C@H]2C=C[C@H]1C21CC1)C1=CN=C(N=C1)N1CCOCC1] | 104 ± 21.9 | 136 ± 11.8 | 158 | 111 ± 2.1 | 134 ± 13.6 |  | 
11 | Cn1ccc(C(=O)Nc2nc(Sc3ccccc3)ns2)cc1=O [RU-0206593, CN1C=CC(=CC1=O)C(=O)NC1=NC(SC2=CC=CC=C2)=NS1] | 42 ± 9.6 | 38.3 ± 17.6 | 42.6 | 39.2 ± 6.9 | 22.7 ± 6.8 |  | 
12 | CCOC(=O)Cc1cc(=O)n2nc(C(F)(F)F)c(-c3ccccc3)c2[nH]1 [RU-0171667, CCOC(=O)CC1=CC(=O)N2N=C(C(=C2N1)C1=CC=CC=C1)C(F)(F)F] | 84.5 ± 11.2 | 94.8 ± 4 | 163 | 148 ± 28.3 | 178 ± 17.6 |  | 
13 | COc1ccc(COc2ccccc2NC(C)=O)cc1Br [RU-0277875, COC1=C(Br)C=C(COC2=C(NC(C)=O)C=CC=C2)C=C1] | 139 ± 5.6 | 199 ± 12.2 | 175 | 138 ± 7.5 | 229 ± 11.9 |  | 
14 | COc1ccc(OC)c(C2CCCN2C(=O)NCc2cccs2)c1 (stereo not drawn) [RU-0273525, COC1=CC(C2CCCN2C(=O)NCC2=CC=CS2)=C(OC)C=C1] | 119 ± 11.1 | 184 ± 6.5 | 150 | 158 ± 14.1 | 232 ± 6.9 |  | 
15 | CC(NC(=O)C1Cc2cc(Cl)ccc2O1)c1ccc(F)c(F)c1 (stereo not drawn) [RU-0272361, CC(NC(=O)C1CC2=C(O1)C=CC(Cl)=C2)C1=CC(F)=C(F)C=C1] | 83.2 ± 14.8 | 107 ± 4.9 | 162 | 152 ± 9 | 215 ± 14 |  | 
16 | CC(NC(=O)C1Cc2ccccc2O1)c1ccc(Cl)s1 (stereo not drawn) [RU-0272776, CC(NC(=O)C1CC2=C(O1)C=CC=C2)C1=CC=C(Cl)S1] | 88.5 ± 5.6 | 105 ± 5.5 | 231 | 170 ± 3.6 | 192 ± 26.2 |  | 
17 | CC(NC(=O)c1cc(Cl)ccc1NS(C)(=O)=O)c1ccc2c(c1)OCO2 (stereo not drawn) [RU-0202213, CC(NC(=O)C1=C(NS(C)(=O)=O)C=CC(Cl)=C1)C1=CC2=C(OCO2)C=C1] | 89.3 ± 18.6 | 119 ± 13.2 | 195 | 152 ± 9.2 | 181 ± 5.7 |  | 
